Laboratory results: patent US20160331723A1, “PHARMACOLOGICAL TREATMENT OF ATTENTION DEFICIT AND/OR HYPERACTIVITY” (BIOCODEX, priority 2013, published 2016)

What was measured:
[1] = system: Spontaneously Hypertensive Rat (SHR); experiment: Open field test, juvenile SHR rats; type: in vivo; details: 200 mg/kg i.p., second 10 minutes period, vs vehicle, p<0.001
Excerpt: The inventors have examined the potential new therapeutic application of Stiripentol (STP, Diacomit®) in attention deficit and hyperactivity disorder (ADHD). For this, the effect of an acute administration of Stiripentol, on hyperactivity in rats was studied. The model chosen for this study is the Spontaneously Hypertensive Rat (SHR), a rat model that has been described as a model for hyperactivity (Sagvolden et al. (1992) Behav. Neural. Biol. 58:103-112; Sagvolden et al. (2009) Neuropharmacology 57:619-626; Davids et al. (2003) Brain Res. Brain Res. Rev. 42:1-21) and three behavioral tests were run: an open field test, an actimetry test and a grip test.
Juvenile (25-30 days old, 80-120 g) or adolescent (40-45 days old, 140-160 g) male Wistar SHR rats or the control strain Wistar kyoto (WKY) rats, from River Germany, were used in this study. […]
Rats are placed in the middle of an open field (a closed arena of 1 m×1 m), and recorded with a videotracking system (Videotrack, Viewpoint S.A., Lyon France). […] The number of rearings and zone changes is recorded during 2 consecutive 10 minutes periods. […]
(§1) Data are represented as the mean±standard error of mean (S.E.M.). The difference between Stiripentol and vehicle treated rats, was assessed with an ANOVA or repeated measures ANOVA (one factor repetition). […]

Wistar kyoto (WKY) rats [2] = experiment: Open field test, juvenile WKY control rats; type: in vivo, rat; details: 200 mg/kg i.p., second 10 minutes period, vs vehicle
Procedure: (§2) Juvenile (25-30 days old, 80-120 g) or adolescent (40-45 days old, 140-160 g) male Wistar SHR rats or the control strain Wistar kyoto (WKY) rats, from River Germany, were used in this study. They were housed 2 per cage (Techniplast ref. 1291), and maintained in a 12 h light/dark cycle (light ON at 7 AM). Food and water were provided ad libitum. Rats were acclimated to the animal facilities at least 5 days before testing started. The experiments were conducted in accordance with the European Recommendations (directive 86/609/EEC) for the use and care of laboratory animals.
Rats are placed in the middle of an open field (a closed arena of 1 m×1 m), and recorded with a videotracking system (Videotrack, Viewpoint S.A., Lyon France). The arena is separated in 9 equivalent zones on the analysis software. Illumination intensity is set around 30 lux. The number of rearings and zone changes is recorded during 2 consecutive 10 minutes periods. The test is started forty five minutes after vehicle or STP injection. For juvenile rats (around 25 days old, n=30 SHR rats, n=30 WKY rats), each rat was randomly assigned to a test group and tested once. […]
as §1

Wistar kyoto (WKY) rats [3] = experiment: Actimetry (opto-varimex), juvenile WKY control rats; type: in vivo, rat; details: 200 mg/kg i.p., vs vehicle
Procedure: as §2
(§3) Animals are placed in the opto-varimex system (Plexiglas arena, 42×42 cm, Columbus Instruments, Columbus, Ohio), an automated system to quantify their activity as horizontal or vertical movements. Animals are habituated to the behavioral room for one hour before the beginning of the test, illumination intensity is around 400 lux. Activity is recorded immediately after placing the animal in the system, forty five minutes after injection, for a one hour period. Animals are assigned to a test group and tested only once. […]
as §1

[4] = several animal models; cited from earlier work
[5] = system: Spontaneously Hypertensive Rat (SHR); experiment: Actimetry (opto-varimex), juvenile SHR rats; type: in vivo; details: 200 mg/kg i.p., vs vehicle
Procedure: as §2, §3, §1

[6] = system: epilepsy seizures in children presenting with Dravet syndrome; details: add-on therapy to valproate and clobazam; cited from earlier work
[7] = system: WKY (control) or SHR adolescent rats; experiment: Grip test (muscular strength); type: in vivo, rat; details: WKY and SHR rats (40-45 days old), 200 mg/kg i.p., 1 hour after administration, p=0.058, listed as STP
Procedure: The grip test measures the muscular strength of the animal. This test is used to identify myorelaxant properties of compounds. An electronic system is used (Bioseb) to measure the force developed by a rat grasping a T-shape bar with its forelimb. Five consecutive measures are taken, data are expressed as mean±standard error of mean. […] Measures are taken 60 minutes after intraperitoneal (i.p.) injection.
Stiripentol (batch 176, dissolved in 5% tween 80 in 0.9% NaCl) was administered i.p. at the dose of 200 mg/kg with an injection volume of 10 ml/kg.
Data are represented as the mean±standard error of mean (S.E.M.). The difference between Stiripentol and vehicle treated rats, was assessed with an ANOVA or repeated measures ANOVA (one factor repetition). Significance was set at p<0.05 (Sigma Stat, v3.5, SPSS, Chicago, USA).

- strength developed in the grip test (myorelaxant effect) [7]: no significant effect
Structure (SMILES): CC(C)(C)C(O)/C=C/c1ccc2c(c1)OCO2 (racemic) [Stiripentol, 1-penten-3-ol,1-(1,3-benzodioxol)-4,4-dimethyl]
- rearing activity in open field ([1]; SHR juvenile rats (25 days old)): significantly decreases
- number of zone changes in open field ([1]; SHR juvenile rats): decreased
- rearing activity in open field (Wistar kyoto (WKY) rats [2]): no effect
- locomotor (ambulatory) activity in actimetry (Wistar kyoto (WKY) rats [3]; WKY control juvenile rats, one hour recording): no effect
- number of rearings in actimetry (Wistar kyoto (WKY) rats [3]; WKY juvenile rats): no effect
- anticonvulsant activity [4]: shown anticonvulsant activity
- rearing behavior in actimetry [5]: statistically decreases
- efficacy in controlling epilepsy seizures (responder rate) [6]: demonstrated
